Test results reported in patent US9242969B2, “Biaryl amide compounds as kinase inhibitors” (Novartis AG, priority 2013, dated 2016).

These molecules were tested against C-Raf TR (Δ1-324 deletion mutant with activating mutations) (Homo sapiens (Human), UniProt P04049, Y340E/Y341E). Conditions: truncated C-Raf (Δ1-324), ATP 3 uM, 10 nM biotinylated MEK1 kinase dead.
Type: biochemical
Method: biotinylated Mek, Kinase dead approximately 10 nM
Pre-incubation time with compounds 30 minutes at room temperature
Reaction time 2 hours at room temperature
Plates were sealed and stored overnight in the dark at room temperature. Plates were counted in a Perkin Elmer Envision instrument.

Chain of C-Raf TR (Δ1-324 deletion mutant with activating mutations) (P04049 325-648 Y340E/Y341E): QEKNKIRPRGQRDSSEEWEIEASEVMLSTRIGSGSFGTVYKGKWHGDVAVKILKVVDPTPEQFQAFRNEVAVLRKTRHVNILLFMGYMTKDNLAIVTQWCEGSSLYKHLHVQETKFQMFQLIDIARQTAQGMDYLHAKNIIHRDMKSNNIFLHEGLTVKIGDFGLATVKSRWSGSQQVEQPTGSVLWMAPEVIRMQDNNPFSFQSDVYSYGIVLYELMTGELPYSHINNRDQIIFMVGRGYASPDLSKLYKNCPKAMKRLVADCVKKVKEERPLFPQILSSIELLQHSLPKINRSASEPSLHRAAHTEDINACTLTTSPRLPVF

| SMILES | IC50 [nM] |
| --- | --- |
| Cc1ccc(NC(=O)c2cccc(C(F)(F)F)c2)cc1-c1cncc(N2CCOCC2)n1 [Example 118, N-(4-methyl-3-(6-morpholinopyrazin-2-yl)phenyl)-3-(trifluoromethyl)benzamide] | 0.308 |
| Cc1ccc(NC(=O)c2cccc(C(F)(F)F)c2)cc1-c1csc(N2CCOCC2)n1 [Example 199, N-(4-methyl-3-(2-morpholinothiazol-4-yl)phenyl)-3-(trifluoromethyl)benzamide] | 1.29 |
| Cc1ccc(C(=O)Nc2cccc(C(F)(F)F)c2)cc1-c1nc(N2CCOCC2)cc(N2CCOCC2)n1 [Example 14, 3-(4,6-dimorpholinopyrimidin-2-yl)-4-methyl-N-(3-(trifluoromethyl)phenyl)benzamide] | 0.803 |
| Cc1ccc(C(=O)Nc2cccc(C(F)(F)F)c2)cc1-c1ccnc(N2CCOCC2)c1 [Example 63, 4-Methyl-3-(2-morpholinopyridin-4-yl)-N-(3-(trifluoromethyl)phenyl)benzamide] | 0.508 |
| Cc1ccc(NC(=O)c2cccc(C(F)(F)F)c2)cc1-c1cn(C)c(=O)c(N2CCOCC2)n1 [Example 119, N-(4-methyl-3-(4-methyl-6-morpholino-5-oxo-4,5-dihydropyrazin-2-yl)phenyl)-3-(trifluoromethyl)benzamide] | 0.27 |
